Laboratory results reported in PMC10714400, “Antimicrobial Peptide–Peptoid Hybrids with and without Membrane Disruption” (ACS Infectious Diseases, 2023).
≈ marks a conversion by molar mass, not a printed value. Where two headings read alike, the source gives them in different places. Where a SMILES comes first, the peptide text is derived from it. [ ]: non-standard residue; d: D form. Nleu = CC(C)CNCC(=O)O; Nlys = NCCCCNCC(=O)O

How the values were obtained:
S. maltophilia = conditions: […] MH at pH 8.5
In short: (§1)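 Using MTT as a visual viability dye, MICs were scored as the lowest concentration with no visible growth. Prior to staining, ~5 × 10^5 CFU per well grew in MH medium for ca. 18 h at 37 °C under static conditions.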

B. cenocepacia = conditions: diluted MH ([…] MH) at pH 8.5 (Table 2 footnote b)
In short: as §1

S. epidermis = conditions: […] MH at pH 8.5
In short: as §1

S. aureus Newman = conditions: […] MH at pH 8.5
In short: as §1

P. aeruginosa PA14 = tested on: P. aeruginosa PA14
In short: as §1

E. coli W3110 = tested on: E. coli W3110
In short: as §1

PA14 2P4 (pmrB) = tested on: PA14 2P4 (pmrB)
In short: as §1

PA14 4.13 (phoQ) = tested on: PA14 4.13 (phoQ)
In short: as §1

S. aureus COL (MRSA) = tested on: S. aureus COL (MRSA)
In short: as §1

[1] = tested on: ZEM9A (clinical MDR P. aeruginosa isolate); conditions: […] MH at pH 8.5
In short: as §1

E. cloacae = conditions: […] MH at pH 8.5
In short: as §1

K. pneumoniae OXA-48 = conditions: […] MH at pH 8.5
In short: as §1

[2] = tested on: ZEM-1A (clinical MDR P. aeruginosa isolate)
In short: as §1

PA14 4.18 (pmrB) = tested on: PA14 4.18 (pmrB)
In short: as §1

[3] = tested on: human red blood cells (hRBC); test: Minimum hemolytic concentration (MHC); assay type: cell-based
Excerpt: We also measured minimal hemolysis concentrations (MHC) on human red blood cells by serial 2-fold dilution as an indication of toxicity against eukaryotic cells (Table 1).

HEK293 cells = test: Cell viability assay by Alamar blue
Experimental: The data are represented as the mean value ± SD, n = 3. […] (c) Vesicle leakage assay for a selection of compounds. Lipid vesicles made of EYPG or EYPC were suspended in a buffer (10 mM TRIS, 107 mM NaCl, pH 7.4). After 45 s, the indicated compound was added to reach the desired concentration. After 240 s, 30 μL of 1.2% TritonX-100 was added for full fluorescein release. […] See Supporting Information for the full curves, all of the data, and procedures.
HEK293 cells were cultured and maintained in DMEM high glucose (Dulbecco’s modified Eagle medium, Sigma Aldrich) medium supplemented with 10% FBS (Sigma Aldrich) and 1% penicillin/streptomycin. A549 cells were cultured and maintained in RPMI-1640 medium (Sigma Aldrich), supplemented with 10% FBS (Sigma Aldrich) and 1% penicillin/streptomycin. The cells were handled and subcultured according to the manufacturer instructions. Cells were incubated in a humidified incubator at 37 °C in the presence of 5% CO2.
Assays on HEK293, A549 cells were performed as described earlier.[74] […]

[4] = diluted MH ([…] MH) at pH 8.5 (Table 2 footnote b)

SMILES: CC(C)CN(CC(N)=O)C(=O)CN(CC(C)C)C(=O)CN(CC(C)C)C(=O)CN(CCCCN)C(=O)CN(CC(C)C)C(=O)CN(CC(C)C)C(=O)CN(CCCCN)C(=O)CN(CC(C)C)C(=O)CN(CC(C)C)C(=O)CN(CCCCN)C(=O)CNCCCCN [EB11, kkllkllklll] (H-[Nlys][Nlys][Nleu][Nleu][Nlys][Nleu][Nleu][Nlys][Nleu][Nleu][Nleu]-NH2)
- MIC S. maltophilia, […] MH at pH 8.5 (S. maltophilia; CSV): 4 ug/mL
- MIC S. maltophilia (S. maltophilia; Table S3): 4 µg/mL (≈ 3.03 µM)
- MIC B. cenocepacia (B. cenocepacia): >32 µg/mL
- MIC S. epidermis, […] MH at pH 8.5 (S. epidermis; CSV): 1 ug/mL
- MIC S. epidermis (S. epidermis; Table S3): 1 µg/mL (≈ 0.757 µM)
- MIC S. aureus Newman, […] MH at pH 8.5 (S. aureus Newman; CSV): 4 ug/mL
- MIC S. aureus Newman (S. aureus Newman; Table S3): 4 µg/mL (≈ 3.03 µM)
- MIC P. aeruginosa PA14, […] MH at pH 8.5 (P. aeruginosa PA14; CSV, […] MH at pH 8.5): 3 ug/mL
- MIC P. aeruginosa PA14 (P. aeruginosa PA14; Table S3, […] MH at pH 8.5, 16-20 hours at 37 °C): 2 to 4 µg/mL
- MIC P. aeruginosa PA14 (P. aeruginosa PA14; [4]): 2 to 4 µg/mL
- MIC E. coli W3110, […] MH at pH 7.4 (E. coli W3110; CSV, […] MH at pH 7.4): 8 ug/mL
- MIC E. coli W3110, […] MH at pH 8.5 (E. coli W3110; CSV, […] MH at pH 8.5): 3 ug/mL
- MIC E. coli W3110, full MH at pH 7.4 (E. coli W3110; CSV, full MH at pH 7.4): >32 ug/mL
- MIC E. coli W3110, full MH at pH 8.5 (E. coli W3110; CSV, full MH at pH 8.5): >32 ug/mL
- Antibacterial activity as a function of NaCl concentration (E. coli W3110; E. coli W3110, […] MH at pH 8.5, up to 300 mM NaCl): strongly reduced
- MIC E. coli W3110 […] 7.4 (E. coli W3110; Table S2, […] MH, pH 7.4): 8 µg/mL (≈ 6.05 µM)
- MIC E. coli W3110 […] 8.5 (E. coli W3110; Table S2, […] MH, pH 8.5): 2 to 4 µg/mL
- MIC E. coli W3110 Full MH 7.4 (E. coli W3110; Table S2, full MH, pH 7.4): > 32 µg/mL
- MIC E. coli W3110 Full MH 8.5 (E. coli W3110; Table S2, full MH, pH 8.5): > 32 µg/mL
- MIC P. aeruginosa PA14 2P4, […] MH at pH 8.5 (PA14 2P4 (pmrB); CSV, […] MH at pH 8.5): 12 ug/mL
- MIC P. aeruginosa PA14 2P4 (PA14 2P4 (pmrB); Table S3, […] MH at pH 8.5): 8 to 16 µg/mL
- MIC PA14 2P4 (pmrB) (PA14 2P4 (pmrB); [4]): 8 to 16 µg/mL
- MIC P. aeruginosa PA14 4.13, […] MH at pH 8.5 (PA14 4.13 (phoQ); CSV, […] MH at pH 8.5): 6 ug/mL
- MIC P. aeruginosa PA14 4.13 (PA14 4.13 (phoQ); Table S3, […] MH at pH 8.5): 4 to 8 µg/mL
- MIC PA14 4.13 (phoQ) (PA14 4.13 (phoQ); [4]): 4 to 8 µg/mL
- MIC S. aureus COL (MRSA), […] MH at pH 7.4 (S. aureus COL (MRSA); CSV, […] MH at pH 7.4): >32 ug/mL
- MIC S. aureus COL (MRSA), […] MH at pH 8.5 (S. aureus COL (MRSA); CSV, […] MH at pH 8.5): 6 ug/mL
- MIC S. aureus COL (MRSA), full MH at pH 7.4 (S. aureus COL (MRSA); CSV, full MH at pH 7.4): >32 ug/mL
- MIC S. aureus COL (MRSA), full MH at pH 8.5 (S. aureus COL (MRSA); CSV, full MH at pH 8.5): >32 ug/mL
- MIC S. aureus COL (MRSA) […] 7.4 (S. aureus COL (MRSA); Table S2, […] MH, pH 7.4): > 32 µg/mL
- MIC S. aureus COL (MRSA) […] 8.5 (S. aureus COL (MRSA); Table S2, […] MH, pH 8.5): 4 to 8 µg/mL
- MIC S. aureus COL (MRSA) Full MH 7.4 (S. aureus COL (MRSA); Table S2, full MH, pH 7.4): > 32 µg/mL
- MIC S. aureus COL (MRSA) Full MH 8.5 (S. aureus COL (MRSA); Table S2, full MH, pH 8.5): > 32 µg/mL
- MIC S. aureus COL (MRSA) […] (S. aureus COL (MRSA); diluted MH ([…] MH, pH 8.5) per Table 1 footnote b, 16–20 h at 37 °C): >32 µg/mL
- MIC P. aeruginosa ZEM9A, […] MH at pH 8.5 ([1]; CSV): 4 ug/mL
- MIC P. aeruginosa ZEM9A ([1]; Table S3): 4 µg/mL (≈ 3.03 µM)
- MIC E. cloacae, […] MH at pH 8.5 (E. cloacae; CSV): 16 ug/mL
- MIC E. cloacae (E. cloacae; Table S3): 16 µg/mL (≈ 12.1 µM)
- MIC K. pneumoniae OXA-48, […] MH at pH 8.5 (K. pneumoniae OXA-48; CSV): 32 ug/mL
- MIC K. pneumoniae OXA-48 (K. pneumoniae OXA-48; Table S3): 32 µg/mL (≈ 24.2 µM)
- MIC P. aeruginosa ZEM-1A, […] MH at pH 8.5 ([2]; CSV, […] MH at pH 8.5): 3 ug/mL
- MIC P. aeruginosa ZEM-1A ([2]; Table S3, […] MH at pH 8.5): 2 to 4 µg/mL
- MIC ZEM-1A [2, 4]: 2 to 4 µg/mL
- MIC P. aeruginosa PA14 4.18, […] MH at pH 8.5 (PA14 4.18 (pmrB); CSV, […] MH at pH 8.5): 12 ug/mL
- MIC P. aeruginosa PA14 4.18 (PA14 4.18 (pmrB); Table S3, […] MH at pH 8.5): 8 to 16 µg/mL
- MIC PA14 4.18 (pmrB) (PA14 4.18 (pmrB); [4]): 8 to 16 µg/mL
- MHC ([3]; CSV): >2000 µg/mL
- MHC ([3]; Table S2, hRBC, 10 mM phosphate buffer, 150 mM NaCl, pH 7.4, 25 °C, 4 h): > 2000 µg/mL
- MHC ([3]; hRBC, 10 mM phosphate buffer, 150 mM NaCl, pH 7.4, 25 °C, 4 h): >2000 µg/mL
- Hemolysis ([3]; human red blood cells): none of them showed any measurable hemolysis
- Toxicity against HEK293 cells, no effect detected up to (HEK293 cells; Alamar blue, 24 h): > 200 µM
- IC50 (HEK293 cells; read-out: Toxicity on HEK293 cells, CSV): > 200 µM
